Data published in ChEMBL document CHEMBL6182865, “Discovery of potent free fatty acid receptor 1 full agonists with a novel scaffold bearing conjugated double bond linker” (Bioorg Med Chem, 2025).
Calls of active or inactive are those of the source. No cut-off for these calls is given here.

Assays:
[1] = target: T1, Free fatty acid receptor 1 (Homo sapiens, UniProt O14842); experiment: Agonist activity at GPR40 (unknown origin) expressed in HEK293 cells assessed as intracellular inositol phosphate accumulation incubated for 30 mins by IP-one HTRF analysis; type: functional, cell-based
T1 sequence (O14842 whole entry): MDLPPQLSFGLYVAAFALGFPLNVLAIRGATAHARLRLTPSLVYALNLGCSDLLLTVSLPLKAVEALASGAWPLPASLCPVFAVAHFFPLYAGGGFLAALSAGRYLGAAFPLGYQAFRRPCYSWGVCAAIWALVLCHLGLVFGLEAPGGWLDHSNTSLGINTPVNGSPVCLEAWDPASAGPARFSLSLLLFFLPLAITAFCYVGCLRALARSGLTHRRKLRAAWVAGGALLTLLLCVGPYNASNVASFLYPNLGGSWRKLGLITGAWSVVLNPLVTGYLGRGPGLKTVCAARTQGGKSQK

[2] = target: T1, Free fatty acid receptor 1; experiment: Agonist activity at GPR40 (unknown origin) expressed in HEK293 cells assessed as intracellular cAMP level incubated for 30 mins by LANCE Ultra cAMP kit based multiplate reader analysis; type: functional, cell-based
Mus musculus [3] = experiment: Hypoglycemic effect in male C57BL/6 mouse assessed as reduction in blood glucose level at 3 mg/kg, po preadministered with compound for 60 mins followed by glucose administration at 0 hrs and measured up to 90 mins by oral glucose tolerance test; type: functional, organism-based; details: time <= 150.0 min
Mus musculus [4] = experiment: Hypoglycemic effect in male po dosed C57BL/6 mouse preadministered with compound for 60 mins followed by glucose administration at 0 hrs and measured up to 90 mins by oral glucose tolerance test; type: functional, organism-based; details: dose 3-30 mg/kg, time <= 150.0 min
Mus musculus [5] = experiment: Hypoglycemic effect in male C57BL/6 mouse assessed as reduction in blood glucose level at 30 mg/kg, po preadministered with compound for 60 mins followed by glucose administration at 0 hrs and measured up to 90 mins by oral glucose tolerance test; type: functional, organism-based; details: time <= 150.0 min
Mus musculus [6] = experiment: Hypoglycemic effect in male C57BL/6 mouse assessed as reduction in blood glucose level at 10 mg/kg, po preadministered with compound for 60 mins followed by glucose administration at 0 hrs and measured up to 90 mins by oral glucose tolerance test; type: functional, organism-based; details: time <= […] min
[7] = target: T1, Free fatty acid receptor 1; experiment: Partial agonist activity at GPR40 (unknown origin) expressed in HEK293 cells assessed as intracellular inositol phosphate accumulation by measuring maximum efficacy incubated for 30 mins by IP-one HTRF analysis relative to control; type: functional, cell-based; details: filed as partial agonist

EC50 [1] [nM] | EC50 [2] [nM] | Structure (SMILES) | further results
204 | > 10000 | COc1ccc(OCc2ccccc2)c(/C=C(C)/C=C/COc2cccc(C(CC(=O)O)C3CC3)c2)c1 (stereo not drawn) | –
1.11 | 87.9 | COc1ccc(C(=O)N(CC(C)(C)C)c2cccc(C)n2)c(N2CCC(COc3cc([C@@H](CC(=O)O)C4CC4)ccn3)CC2)c1 | Activity (Mus musculus [3]): Active
1770 | > 10000 | COc1ccc(F)c(/C=C/C=C/COc2cccc(C(CC(=O)O)C3CC3)c2)c1 (stereo not drawn) | –
364 | > 10000 | CCCOc1ccc(OC)cc1/C=C(C)/C=C/COc1cccc(C(CC(=O)O)C2CC2)c1 (stereo not drawn) | –
3.23 | 261 | COc1ccc(OCCC(C)(C)C)c(/C=C(C)/C=C/COc2cccc([C@H](C3CC3)[C@@](C)(F)C(=O)O)c2)c1 | Activity (Mus musculus [4]): Dose-dependent-effect; Activity (Mus musculus [5]): Active; Compound Showed Better Effect Compared With Standard Drug(Sco-267); Activity (Mus musculus [6]): Active
367 | > 10000 | COc1ccc(OCC2CC2)c(/C=C(C)/C=C/COc2cccc(C(CC(=O)O)C3CC3)c2)c1 (stereo not drawn) | –
134 | 6870 | COc1ccc(OCCCC(C)C)c(/C=C(C)/C=C/COc2cccc(C(CC(=O)O)C3CC3)c2)c1 (stereo not drawn) | –

Further lines, the compound ahead of its results:

Structure (SMILES) | EC50 [1] [nM] | EC50 [2] [nM] | further results
COc1ccc(OCCC(C)(C)C)c(/C=C(C)/C=C/COc2cccc([C@H](C3CC3)[C@](C)(F)C(=O)O)c2)c1 | 1050 | > 10000 | –
COc1ccc(F)c(CCCCCCOc2cccc(C(CC(=O)O)C3CC3)c2)c1 (stereo not drawn) | > 10000 | > 10000 | –
COc1cc(/C=C(C)/C=C/COc2cccc(C(CC(=O)O)C3CC3)c2)cc(OCCC(C)(C)C)c1 (stereo not drawn) | 943 | > 10000 | –
COc1cc(/C=C(C)/C=C/COc2cccc(C(CC(=O)O)C3CC3)c2)cc(OCc2ccc(Cl)cc2F)c1 (stereo not drawn) | 1360 | > 10000 | –
COc1ccc(F)c(CCCCOc2cccc(C(CC(=O)O)C3CC3)c2)c1 (stereo not drawn) | 6700 | > 10000 | –
Cc1cc(OCCCS(C)(=O)=O)cc(C)c1-c1cccc(COc2ccc3c(c2)OC[C@H]3CC(=O)O)c1 | – | – | Emax [7]: 77.8%
COc1ccc(OC)c(/C=C(C)/C=C/COc2cccc(C(CC(=O)O)C3CC3)c2)c1 (stereo not drawn) | 894 | > 10000 | –
COc1ccc(F)c(CCCOc2cccc(C(CC(=O)O)C3CC3)c2)c1 (stereo not drawn) | > 10000 | > 10000 | –
